Earlier results in article PMC4914392 (Bioorganic & medicinal chemistry, 2016).

Conditions: ref [17]

## Nc1nccc2c1nnn2[C@@H]1O[C@H](CO)[C@@H](O)[C@H]1O [Compound 4, 8-aza-3-deazaadenosine]
  Fluorescence emission λmax (H2O): 430 nm
  Stokes shift (H2O): 140 nm
